Publication PMC9599816, “Cholesterol Chip for the Study of Cholesterol–Protein Interactions Using SPR” (Biosensors, 2022)

Assays:
PTP1B = biological target: T1, PTP1B (Homo sapiens, UniProt P18031); experiment: biochemical
T1 construct: gene PTPN1

[1] = biological target: T2, hedgehog protein, HhC (C-terminal cholesterol-binding domain) (Drosophila melanogaster, UniProt Q02936, H329A); experiment: SPR, biotinylated cholesterol immobilized on streptavidin chip, […] Langmuir fit
T2 construct: gene hh; HhC autoprocessing mutant, C-terminal fusion to SUMO-HIS8
T2 sequence (Q02936 258-471 H329A): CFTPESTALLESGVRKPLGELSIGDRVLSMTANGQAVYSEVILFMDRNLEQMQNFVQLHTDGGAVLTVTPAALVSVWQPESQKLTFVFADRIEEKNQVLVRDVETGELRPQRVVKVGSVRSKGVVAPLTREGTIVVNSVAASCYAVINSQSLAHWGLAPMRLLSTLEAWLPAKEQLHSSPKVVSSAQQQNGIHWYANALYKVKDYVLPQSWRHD

T1 sequence (P18031 1-321): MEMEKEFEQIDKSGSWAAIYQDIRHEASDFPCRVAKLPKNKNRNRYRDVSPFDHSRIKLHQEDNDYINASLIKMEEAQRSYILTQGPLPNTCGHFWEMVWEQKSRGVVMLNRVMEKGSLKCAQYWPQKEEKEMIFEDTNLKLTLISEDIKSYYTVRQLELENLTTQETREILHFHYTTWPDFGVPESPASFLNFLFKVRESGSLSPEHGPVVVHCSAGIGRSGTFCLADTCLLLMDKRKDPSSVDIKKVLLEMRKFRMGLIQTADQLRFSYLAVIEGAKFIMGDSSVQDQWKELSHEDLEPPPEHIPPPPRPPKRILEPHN

CC(CCC[C@@H](C)[C@H]1CC[C@H]2[C@@H]3CC=C4C[C@@H](O)CC[C@]4(C)[C@H]3CC[C@]12C)c1cn(CCOCCOCCOCCNC(=O)CCCCC2SCC3NC(=O)NC32)nn1 (some centres unmarked) [biotinylated cholesterol]
Kd (PTP1B): ~85 nM | Kd [1]: ~14 nM
